Data: patent publication US10344065B2, “Method for treating Alzheimer's disease and method for downregulating protein aggregation in brain” (National Cheng Kung University, priority 2017, dated 2019)
Residues, ends and D or L forms follow the SMILES beside them. *: point of attachment. Cbz = O=C(OCc1ccccc1)*

Columns and labels:
[1] = tested on: pyramidal neurons in the hippocampi; assay: Melanoma B16F10-induced neurodegeneration in nude mice; assay type: in vivo, mouse; conditions: nude mice, B16F10; data not shown
Method: FIG. 4 includes photos showing that Zfra suppresses melanoma B16F10-mediated neurodegeneration in the hippocampus. Nude mice were preinjected with 100 μL, of sterile Milli-Q water or Zfra4-10 (1 mM in sterile water) in 3 consecutive weeks. After treatment for a week, these mice were inoculated with melanoma B16F10 cells on both flanks (2×10^5 cells in 100-μL, PBS). Mice were sacrificed when the tumor sizes grew up to 2000-3000 mm^3 in about a month. (A) Zfra blocked neurodegeneration in the hippocampus (top panel) and prevented the formation of TPC6AΔ plaques in the cortex (bottom panel), which negatively correlates with pS14-WWOX expression. Note the presence of condensed apoptotic nuclei in the hippocampal neurons in the control mice, (B) Metastasis of B16F10 cells to the lung was blocked in Zfra-treated mice. Compared to controls, Zfra suppressed p-S14WWOX expression in the lung by ˜72% suppression (three sections). […] (C and D) The non-spatial learning and memory were determined by novel object recognition task for both 3×Tg and Wwox+/− mice. […]
Six- to eight-week-old male nude (BALB/cAnN.Cg-Foxn1^nu/CrlNarl) mice (National Laboratory Animal Center, Taiwan) were used. […] Tumor volumes were measured daily and calculated using the equation, D×(d)^2/2, where D and d are the major and minor diameters, respectively. […] Z-cell distribution in organs was determined under fluorescence microscopy.

Aβ42 = target: T1, Aβ42 (Homo sapiens, UniProt P05067); assay: Aβ42 aggregation in vitro (SDS-PAGE); assay type: biochemical; conditions: 100 μM each peptide, room temperature, 24 hours or less
T1 construct: purchased AnaSpec
Excerpt: FIG. 5 includes photos and diagrams showing that Zfra suppresses polymerization or aggregation of serine-containing TPC6AΔ and other peptides in PBS. […] The mixtures were subjected to nonreducing sodium dodecyl sulfate polyacrylamide gel electrophoresis (SDS-PAGE). (A) Full-length Zfra or red-fluorescent TMR-Zfra blocked aggregation of Aβ42 (lanes 3, 5, and 7). […] The membrane was stained with antibody against Aβ. (B) Zfra4-10 and one of the TPC6AΔ peptides were resuspended in Milli-Q water or PBS and incubated for 24 hours at room temperature. Zfra4-10 suppressed the polymerization of serine-containing peptides. Reduction in intensity=[1−(Z.P)/(Z+P)]×100%, where Z=Zfra4-10, P=an indicated peptide, and Z.P=peptide mixture. […] Zfra4-10 suppressed polymerization of these peptides in PBS.
Zfra and serine-containing peptides were synthesized by Genemed Synthesis (San Antonio, Tex., USA), (1) Zfra1-31, […] (SEQ ID NO: 2); (2) Zfra4-10, RRSSSCK (SEQ ID NO: 1); (3) WWOX7-21, AGLDDTDSEDELPPG (SEQ ID NO: 3); (4) pS14-WWOX7-21, AGLDDTDpSEDELPPG (SEQ ID NO: 4); (5). […]

[2] = Self-polymerization of Zfra peptide in PBS (reducing SDS-PAGE); assay type: physicochemical; conditions: >1 mM in PBS; molecular sizes from 3.5 kDa up to 78 and 80 kDa
MCF7 cell lysates = assay: Zfration and degradation of proteins in MCF7 cell lysates; assay type: biochemical, human
Method: (§1) Aliquots of Zfra-deficient breast MCF7 cell lysates (100 μg) were incubated with Zfra (100 μM) for various durations in the presence or absence of proteasome inhibitor MG-132 (50 μM). Zfra formed complexes with cytosolic proteins (or zfrated; see arrows), and disappeared with time even in the presence of MG-132. (B and C) Zfra-negative prostate DU145 cells were exposed to UV (160-720 mJ/cm^2), and aliquots of whole cell lysates (100 μg) were incubated with Zfra peptide (100 μM) for various durations (in PBS) at 37° C., in the presence of a cocktail of protease inhibitors (1:10 dilution). Zfrated proteins (70, 72, 200 kDa and minor band ladders) and exogenous Zfra peptide were degraded with time (>99% in 120 minutes; reducing SDS-PAGE). Synthetic Zfra was in PBS at the first lane at the left, and in Milli-Q water at the last lane at the right. Zfra-free control lysates had only less than 10% degradation of total proteins after incubation for 120 minutes, in the presence of protease inhibitors (data not shown). In the diagram of FIG. 6C, at each time points, the left bar is cell lysates, and the right bar is Zfra peptide. (D) L929 cell lysates (100 μg) were incubated with Zfra peptide (100 μM) for 30 minutes at 37° C. (in PBS). A 30-kDa protein was zfrated in 30 minutes, and 22- and 80-kDa protein was zfrated rapidly and then degraded in 30 minutes (reducing SDS-PAGE). *A nonspecific immunoreactive or a zfrated protein in L929 cells. (E) Zfra peptide (100 μM) bound recombinant His-Tau (2 μg protein) in PBS for 24 hours at room temperature, and the resulting complex resisted dissociation by reducing SDS-PAGE. Abbreviation: Zfra, zinc finger-like protein that regulates apoptosis.
To continue to investigate how Zfra reduces protein aggregation in vivo, we examined whether Zfra interacts with cytosolic proteins and accelerates protein degradation. Zfra peptide at high concentrations may undergo self-polymerization especially in PBS. […] Zfra-deficient human breast MCF7 cells were used. […]

L929 cell lysates = assay: Zfration and degradation of proteins in L929 cell lysates; assay type: biochemical, murine
Method: as §1, with “A 30-kDa protein was zfrated in 30 minutes, and 22- and 80-kDa protein was zfrated rapidly and then degraded in 30 minutes (reducing SDS-PAGE). *A nonspecific immunoreactive or a zfrated protein in L929 cells. (E) Zfra peptide (100 μM) bound recombinant His-Tau (2 μg protein) in PBS for 24 hours at room temperature, and the resulting complex resisted dissociation by reducing SDS-PAGE. Abbreviation: Zfra, zinc finger-like protein that regulates apoptosis.” left out

T1 sequence (P05067 672-713): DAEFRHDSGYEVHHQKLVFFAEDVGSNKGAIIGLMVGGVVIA

Row | Compound | results in similar experiments (melanoma-induced neurodegeneration, metastasis, pS14-WWOX) [1] | aggregation of Aβ42 (Aβ42) | self-polymerization [2] | degradation of zfrated proteins (MCF7 cell lysates; MCF7 lysates, with or without MG-132) | binding of cellular proteins (zfration) (MCF7 cell lysates; MCF7 lysates, complexes resisted SDS and β-mercaptoethanol) | zfration and degradation of 80 and 22 kDa proteins (L929 cell lysates; 37° C., PBS) | zfration of 30-kDa protein (L929 cell lysates; 30 minutes) | effect of proteasome inhibitor on degradation of zfrated proteins (MCF7 cell lysates; MCF7 lysates with Zfra, MG-132 50 μM)
1 | MSSRRSSSCKYCEQDFRAHTQKNAAFPFLAN (MSSRRSSSCKYCEQDFRAHTQKNAATPFLAN; Synthesized pepetide) [Zfra1-31, full-length 31-amino-acid zinc finger-like protein that regulates apoptosis] | Comparable results | blocked | underwent self-polymerization | degraded with time of incubation | Zfra-bound cellular proteins | rapidly zfrated and then degraded in 30 minutes | became zfrated | 
2 | CC(C)C[C@@H](C=O)NC(=O)[C@H](CC(C)C)NC(=O)[C@H](CC(C)C)NC(=O)OCc1ccccc1 [MG-132, reference compound] (Cbz-Leu-Leu-Leu-aldehyde) |  |  |  |  |  |  |  | did not block but enhanced
